Measurements published in paper PMC12118597 (Science Advances, 2025).
Values joined by “and” are separate entries in the source; they are usually repeats but may differ in a detail not shown here. Identical values can stand only once. Like-named read-outs stand apart in the source and are kept apart here.

Tests used:
[1] = target: T1, SARS-CoV-2 NSP3 macrodomain (Mac1) (Severe acute respiratory syndrome coronavirus 2, UniProt P0DTD1); assay: biochemical; assay type: binding; details: for fold decrease in affinity relative to AVI-607: HTRF
[2] = target: T1, SARS-CoV-2 NSP3 macrodomain (Mac1); assay type: binding; details: for Isomers modeled: stereoisomer(s)/conformations of the soaked ligand modeled in the Mac1 crystal structure; for binding by crystal soaking: P43 crystal form, repeated attempts, result in words
[3] = Single dose, concentration 200 μM
[4] = compound at 200 μM, mean of three to four technical replicates, read-out: % competition at 200 μM (preliminary HTRF screen)
[5] = crystal soak 10 mM, TFA/DMSO background map
[6] = ligand modeling, Mac1 crystal soak
[7] = SARS CoV-2 macrodomain HTRF assay
[8] = SARS CoV-2 macrodomain HTRF assay, dose-response, read-out: IC50
[9] = SARS CoV-2 macrodomain HTRF assay, single dose concentration 200 μM, read-out: Average % competition
[10] = read-out: IC50 (confirmatory HTRF dose-response screen)
[11] = single dose concentration 200 μM (TS-FrankenROCS series)

OCC(CC1CC1)Nc1ncnc2[nH]ccc12 (stereo not drawn) [AVI-3662]
Average % competition [1, 3]: 44%
inhibition at 200 µM [1, 4]: 44%
PanDDA run, TFA/DMSO background map: 1-BDC [2, 5]: 0.09
PanDDA run, TFA/DMSO background map: Hit [2, 5]: TRUE
Number of isomers bound [2, 6]: 1

OC1CCCN(c2ncnc3[nH]ccc23)C1 (stereo not drawn) [AVI-3646]
Average % competition ([1]; SARS CoV-2 macrodomain HTRF assay, single dose concentration 200 μM): 20%
inhibition at 200 µM [1, 4]: 20%
PanDDA run, TFA/DMSO background map: 1-BDC [2, 5]: 0.13
PanDDA run, TFA/DMSO background map: Hit [2, 5]: TRUE
Number of isomers bound [2, 6]: 1

O=C(O)C(F)(F)F.OC[C@H](Cc1ccc(O)cc1)Nc1ncnc2[nH]ccc12 [AVI-4066]
Ki [1, 7]: 670 µM
Ligand efficiency (binding enery per heavy atom) [1, 7]: 0.21
IC50 [1, 8]: 720 µM
Hit (PanDDA run, TFA/DMSO background map) [2, 5]: TRUE
1-BDC (PanDDA run, TFA/DMSO background map) ([2]; crystal soak 10 mM, TFA/DMSO background map, event 1): 0.19 and 0.29 and 0.3

OCC1CCCN1c1ncnc2[nH]ccc12 (stereo not drawn) [AVI-3685]
fold decrease in affinity relative to AVI-607 [1]: > 20 fold
inhibition at 200 µM [1, 9]: 47%
inhibition at 200 µM [1, 4]: 48%
Number of isomers bound [2, 6]: 1

O[C@H]1COC[C@@H]1Nc1ncnc2[nH]ccc12 [AVI-1444, (3R,4S)-4-((7H-pyrrolo[2,3-d]pyrimidin-4-yl)amino)tetrahydrofuran-3-ol]
Number of isomers bound [2, 6]: 1

OCC(Cc1nccs1)Nc1ncnc2[nH]ccc12 (stereo not drawn) [AVI-3673]
Average % competition [1, 3]: 38%
inhibition at 200 µM [1, 4]: 38%
PanDDA run, TFA/DMSO background map: 1-BDC [2, 5]: 0.15
PanDDA run, TFA/DMSO background map: Hit [2, 5]: TRUE
Number of isomers bound [2, 6]: 1

CC1(C)CCN(c2ncnc3[nH]ccc23)C(CO)C1 (stereo not drawn) [AVI-5994]
Ki [1, 7]: 63 µM
Ligand efficiency (binding enery per heavy atom) [1, 7]: 0.31
IC50 [1, 8]: 68 µM
Isomers modeled [2]: S,S

CC(C)(O)[C@H]1CCCN1c1ncnc2[nH]ccc12 [AVI-607, 2-[(2R)-1-{7H-pyrrolo[2,3-d]pyrimidin-4-yl}pyrrolidin-2-yl]propan-2-ol]
Ligand efficiency ([1]; Binding energy per heavy atom): 0.41
Ki [1, 7]: 4.7 µM
Ligand efficiency (binding enery per heavy atom) [1, 7]: 0.41
IC50 [1, 10]: 5.1 µM
Number of isomers bound [2, 6]: 1

Cc1cc2c(=O)n(CCN3C(=O)c4ccccc4S3(=O)=O)nnc2s1 [AVI-341]
inhibition at 200 µM [1, 4]: 11%
Average % competition [1, 11]: 11%
Number of isomers bound [2, 6]: 1

OCC(Nc1ncnc2[nH]ccc12)C1CCCC1 (stereo not drawn) [AVI-3649]
Average % competition [1, 3]: 68%
inhibition at 200 µM [1, 4]: 68%
PanDDA run, TFA/DMSO background map: 1-BDC [2, 5]: 0.11
PanDDA run, TFA/DMSO background map: Hit [2, 5]: TRUE
Number of isomers bound [2, 6]: 1

OC1CCC(O)(CNc2ncnc3[nH]ccc23)CC1 (stereo not drawn) [AVI-6220]
Ki [1, 7]: 240 µM
Ligand efficiency (binding enery per heavy atom) [1, 7]: 0.26
IC50 [1, 8]: 260 µM
Isomers modeled [2]: rr,rr

OCC(CC1CCCC1)Nc1ncnc2[nH]ccc12 (stereo not drawn) [AVI-3691]
Average % competition [1, 3]: 52%
inhibition at 200 µM [1, 4]: 53%
PanDDA run, TFA/DMSO background map: 1-BDC [2, 5]: 0.1
PanDDA run, TFA/DMSO background map: Hit [2, 5]: TRUE
Number of isomers bound [2, 6]: 1

OCC(CC1CCC1)Nc1ncnc2[nH]ccc12 (stereo not drawn) [AVI-3641]
Average % competition [1, 3]: 32%
inhibition at 200 µM [1, 4]: 32%
PanDDA run, TFA/DMSO background map: 1-BDC [2, 5]: 0.11
PanDDA run, TFA/DMSO background map: Hit [2, 5]: TRUE
Number of isomers bound [2, 6]: 1

COC1CCCN(S(=O)(=O)c2cc(Cl)cnc2N)C1 (stereo not drawn) [AVI-290]
binding by crystal soaking [2]: failed to observe binding

Cc1c[nH]c2ncnc(NCC3(O)CCC(O)CC3)c12 (stereo not drawn) [AVI-4329]
Isomers modeled [2]: rr,rr

O=C(Nc1ccsc1C(=O)O)c1ccc2c(c1)OCO2 [AVI-316]
Number of isomers bound [2, 6]: 1

Nc1nnc(SCCn2c(=O)oc3ccccc32)s1 [AVI-296]
Number of isomers bound [2]: 1

c1ccc(-n2nnnc2CSc2nnc(NC3CC3)s2)cc1 [AVI-286]
Number of isomers bound [2]: 1

Cc1c[nH]c2ncnc(NCC3(O)CCSCC3)c12 [AVI-4195, 4-(((5-methyl-7H-pyrrolo[2,3-d]pyrimidin-4-yl)amino)methyl)tetrahydro-2H-thiopyran-4-ol]
Ki [1, 7]: 48 µM
Ligand efficiency (binding enery per heavy atom) [1, 7]: 0.31
IC50 [1, 8]: 52 µM

COc1ccc(-c2nccc(N3CCC(c4ccsc4)CC3)n2)cc1 [AVI-344]
Average % competition [1]: <10%

CC(O)C1CCN(c2cc(N3CCC(c4ccccc4)CC3C)ncn2)C1 (stereo not drawn) [AVI-6016]
IC50 ([1]; read-out: IC50): > 1000 µM

OC1(CNc2ncnc3[nH]ccc23)COC2CC1C2 (stereo not drawn) [AVI-4313]
Ki [1, 7]: 120 µM
Ligand efficiency (binding enery per heavy atom) [1, 7]: 0.29
IC50 [1, 8]: 130 µM

O[C@@H]1CNCC[C@H]1Nc1ncnc2[nH]ccc12 [AVI-613]
Average % competition [1, 3]: <10%
inhibition at 200 µM [1, 4]: < 10%

Cc1c[nH]c2ncnc(NCC3(O)CCCCC3)c12 [AVI-3761, 1-(((5-methyl-7H-pyrrolo[2,3-d]pyrimidin-4-yl)amino)methyl)cyclohexan-1-ol]
Ki [1]: 12 µM
IC50 [1, 10]: 13 µM

O=C1CC(C(=O)Nc2nc3c(s2)CCCC3)c2ccccc2N1 (stereo not drawn) [AVI-307]
Average % competition [1]: 0%

CC(O)C1CCCN1c1ncnc2[nH]ccc12 (stereo not drawn) [AVI-4062]
fold decrease in affinity relative to AVI-607 [1]: ~ 10 fold
Ki [1, 7]: 51 µM
Ligand efficiency (binding enery per heavy atom) [1, 7]: 0.35
IC50 [1, 10]: 55 µM

OC1(CNc2ncnc3[nH]ccc23)CCCCC1 [AVI-6217]
Ki [1, 7]: 39 µM
Ligand efficiency (binding enery per heavy atom) [1, 7]: 0.34
IC50 [1, 8]: 42 µM

O=C(c1cc(C2CCCCC2)[nH]n1)N1CCCC(O)(C(F)(F)F)CC1 (stereo not drawn) [AVI-318]
Average % competition [1]: 13%

CC(C)(C)C(O)CC(CO)Nc1ncnc2[nH]ccc12.O=C(O)C(F)(F)F (stereo not drawn) [AVI-3714]
Average % competition [1, 3]: <10%
inhibition at 200 µM [1, 4]: < 10%

Nc1ncc(Cl)cc1S(=O)(=O)N1CCCC(O)C1 (stereo not drawn) [AVI-295]
binding by crystal soaking [2]: failed to observe binding

O=C(O)C(F)(F)F.OCC(Nc1ncnc2[nH]ccc12)C(O)C1CCCCC1 (stereo not drawn) [AVI-3687]
Average % competition [1, 3]: 33%
inhibition at 200 µM [1, 4]: 33%

CC(=O)Nc1ccc(NC(=O)CSc2nnnn2C2CCCC2)cc1 [AVI-315]
Average % competition [1]: 0%

Nc1ncnc(N2CCC(C(F)(F)F)C3(CCC3)C2)c1Cl (stereo not drawn) [AVI-324]
Average % competition [1]: <10%

O=C(O)C1CCc2nnc(-c3ccc(F)cc3)n2C1 (stereo not drawn) [AVI-326]
Average % competition [1]: 15%

CNC(=O)c1ccc(NC(=O)C2CC(=O)Nc3ccccc32)cc1 (stereo not drawn) [AVI-305]
Average % competition [1]: 0%

Cc1c[nH]c2ncnc(NCC3(O)CCC(C)(C)CC3)c12 [AVI-4330]
Ki [1, 7]: 610 µM
Ligand efficiency (binding enery per heavy atom) [1, 7]: 0.21
IC50 [1, 8]: 650 µM

OC1(CNc2ncnc3[nH]ccc23)CCSCC1 [AVI-4319]
Ki [1, 7]: 160 µM
Ligand efficiency (binding enery per heavy atom) [1, 7]: 0.29
IC50 [1, 8]: 170 µM

OCC1(Nc2ncnc3[nH]ccc23)COC1 [AVI-5649]
Average % competition [1, 3]: <10%
inhibition at 200 µM [1, 4]: < 10%

O=c1[nH]c2ccccc2cc1CNc1nc(C2CC2)ns1 [AVI-346]
IC50 ([1]; dose-response, read-out: IC50): > 1000 µM
Average % competition [1, 11]: <10%

CC(Nc1ncnc2[nH]ccc12)C1(O)CCCCC1 (stereo not drawn) [AVI-4321]
Ki [1, 7]: 45 µM
Ligand efficiency (binding enery per heavy atom) [1, 7]: 0.32
IC50 [1, 8]: 48 µM

Cc1sc2ncnc(Sc3ccccc3C(=O)O)c2c1C [AVI-317]
Number of isomers bound [2, 6]: 1

O[C@H]1CNCC[C@@H]1Nc1ncnc2[nH]ccc12 [AVI-615]
inhibition at 200 µM [1, 9]: < 10%
inhibition at 200 µM [1, 4]: < 10%

Cc1c[nH]c2ncnc(NCC3(O)CCOCC3)c12 [AVI-4194, 4-(((5-methyl-7H-pyrrolo[2,3-d]pyrimidin-4-yl)amino)methyl)tetrahydro-2H-pyran-4-ol]
Ki [1, 7]: 150 µM
Ligand efficiency (binding enery per heavy atom) [1, 7]: 0.28
IC50 [1, 8]: 160 µM

Cc1ccc(C)c(CN2C(=O)NC(C)(Cc3ccc4c(c3)OCO4)C2=O)c1 (stereo not drawn) [AVI-320]
Average % competition [1]: 18%

O=C(O)C(F)(F)F.OCC1C2C=CC(C2)N1c1ncnc2[nH]ccc12 (stereo not drawn) [AVI-3712]
inhibition at 200 µM [1, 9]: 55%
inhibition at 200 µM [1, 4]: 55%

OC1(CNc2ncnc3[nH]ccc23)CC2CCC1CC2 (stereo not drawn) [AVI-4320]
Ki [1, 7]: 77 µM
Ligand efficiency (binding enery per heavy atom) [1, 7]: 0.28
IC50 [1, 8]: 83 µM

CC1CN(C(=O)c2ccccc2S(C)(=O)=O)c2cccnc2O1 (stereo not drawn) [AVI-294]
Average % competition [1]: 13%
